The results in this text go back to ChEMBL document CHEMBL1667764, “Characterization of the baicalein-bovine serum albumin complex without or with Cu2+ or Fe3+ by spectroscopic approaches” (Eur J Med Chem, 2011).

Holding throughout (settings): cattle
The target in series [1] is T1, Albumin (Bos taurus, UniProt P02769). In words: Binding affinity to bovine serum albumin at pH 7.4 at 310K by fluorescence quenching logarithmic plot.
Series [2] concerns the target T1, Albumin. In words: Binding affinity to bovine serum albumin using 6x10'-6 Lmol'-1 at pH 7.4 at 310K by Stern-Volmer plot.
Series [3] concerns the target T1, Albumin. In words: Binding affinity to bovine serum albumin at pH 7.4 at 310K in presence of Cu2+ by fluorescence quenching.
The target in series [4] is T1, Albumin. Description: Binding affinity to bovine serum albumin using 4.5x10'-6 Lmol'-1 at pH 7.4 at 310K by Stern-Volmer plot.
Series [5] addresses T1, Albumin. In words: Binding affinity to bovine serum albumin at pH 7.4 at 310K in presence of Cu2+ by fluorescence quenching logarithmic plot.
Series [6] addresses T1, Albumin. In words: Binding affinity to bovine serum albumin at pH 7.4 at 310K in presence of Fe3+ by fluorescence quenching logarithmic plot.
Series [7] addresses T1, Albumin. In words: Binding affinity to bovine serum albumin at pH 7.4 at 310K by fluorescence quenching.
The target of series [8] is T1, Albumin. In words: Binding affinity to bovine serum albumin using 3x10'-6 Lmol'-1 at pH 7.4 at 310K by Stern-Volmer plot.
The target in series [9] is T1, Albumin. Description: Binding affinity to bovine serum albumin at pH 7.4 at 310K in presence of Fe3+ by fluorescence quenching.

T1 sequence (P02769 whole entry): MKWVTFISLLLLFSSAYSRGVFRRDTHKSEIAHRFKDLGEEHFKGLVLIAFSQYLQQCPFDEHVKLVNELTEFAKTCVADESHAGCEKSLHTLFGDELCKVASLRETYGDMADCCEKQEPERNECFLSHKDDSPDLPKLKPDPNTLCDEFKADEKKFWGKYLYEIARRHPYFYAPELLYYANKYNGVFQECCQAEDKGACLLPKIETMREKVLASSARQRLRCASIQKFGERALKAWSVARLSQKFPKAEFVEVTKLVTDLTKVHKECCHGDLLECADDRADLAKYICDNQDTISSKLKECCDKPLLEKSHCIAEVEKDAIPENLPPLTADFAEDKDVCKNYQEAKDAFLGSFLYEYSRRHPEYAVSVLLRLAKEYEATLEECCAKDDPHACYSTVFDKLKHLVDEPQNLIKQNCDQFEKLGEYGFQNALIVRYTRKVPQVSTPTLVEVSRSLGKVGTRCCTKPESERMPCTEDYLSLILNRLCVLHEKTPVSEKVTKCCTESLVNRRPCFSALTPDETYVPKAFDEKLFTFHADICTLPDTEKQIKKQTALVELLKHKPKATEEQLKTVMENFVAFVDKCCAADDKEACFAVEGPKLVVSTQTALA

Consider `O=c1cc(-c2ccccc2)oc2cc(O)c(O)c(O)c12` [BAICALEIN], for which the K is 2.7 ×10⁵ L/mol on Albumin [1], 1.88 ×10⁵ L/mol at Albumin [5] and 4.85 ×10⁴ L/mol on Albumin [6]. Further, the KSV at Albumin [2] was 1.51 ×10⁵ L/mol; on Albumin [3] it was 1.76 ×10⁵ L/mol; on Albumin [4], 1.96 ×10⁵ L/mol; at Albumin [7], 1.96 ×10⁵ L/mol; at Albumin [8] it was 2.11 ×10⁵ L/mol; at Albumin [9], 1.6 ×10⁵ L/mol. Also, the Kq on Albumin [2] is reported as 3.02 ×10¹³ L/mol/s; at Albumin [3], 3.52 ×10¹³ L/mol/s; at Albumin [4], 3.92 ×10¹³ L/mol/s; at Albumin [7], 3.92 ×10¹³ L/mol/s; on Albumin [8], 4.22 ×10¹³ L/mol/s; at Albumin [9] it was 3.2 ×10¹³ L/mol/s.
